Measured values: patent US11103518B2, “Prostate cancer treatment via synergistic inhibition of aryl hydrocarbon receptor (AhR) and SRC” (Clark Atlanta University, Inc., priority 2016, dated 2021)

Legend:
[1] = test system: C4-2 prostate cancer cells; assay: Promega CellTiter 96 Cell Proliferation Assay; assay type: cell-based, human; details: 50 μM CH223191, 30 μM PP2 alone or in combination
[2] = test system: C4-2 prostate cancer cells; assay: Cell cycle analysis; assay type: cell-based, human; details: C4-2 cells, 72 hrs; 50 μM CH223191, 30 μM PP2 alone or in combination, FIG. 4B
AR [3] = assay: Nuclear and cytoplasmic fractionation with western blot, AR nuclear localization in C4-2 cells; assay type: cell-based, human; details: nuclear fraction normalized with topoisomerase, FIG. 1B
Description: In order to address the role of AhR and SRC in this process, a sub-cellular localization was confirmed by immunoblotting following cellular fractionation. […] Cells were washed with cold PBS and cellular fractions were isolated per manufactures instructions using a NE-PER Extraction kit. The nuclear and cytoplasmic fractions were analyzed by western blotting for AhR and AR protein expression. The relative level of cytoplasmic AhR & AR were normalized with β-tubulin expression and the relative level of nuclear AhR & AR were normalized with topoisomerase expression. Blots are representative of three independent experiments.

AhR [4] = target: T1, AhR (Homo sapiens, UniProt P35869); details: even at 100 micromolar; cited from earlier work
T1 sequence (P35869 11-848): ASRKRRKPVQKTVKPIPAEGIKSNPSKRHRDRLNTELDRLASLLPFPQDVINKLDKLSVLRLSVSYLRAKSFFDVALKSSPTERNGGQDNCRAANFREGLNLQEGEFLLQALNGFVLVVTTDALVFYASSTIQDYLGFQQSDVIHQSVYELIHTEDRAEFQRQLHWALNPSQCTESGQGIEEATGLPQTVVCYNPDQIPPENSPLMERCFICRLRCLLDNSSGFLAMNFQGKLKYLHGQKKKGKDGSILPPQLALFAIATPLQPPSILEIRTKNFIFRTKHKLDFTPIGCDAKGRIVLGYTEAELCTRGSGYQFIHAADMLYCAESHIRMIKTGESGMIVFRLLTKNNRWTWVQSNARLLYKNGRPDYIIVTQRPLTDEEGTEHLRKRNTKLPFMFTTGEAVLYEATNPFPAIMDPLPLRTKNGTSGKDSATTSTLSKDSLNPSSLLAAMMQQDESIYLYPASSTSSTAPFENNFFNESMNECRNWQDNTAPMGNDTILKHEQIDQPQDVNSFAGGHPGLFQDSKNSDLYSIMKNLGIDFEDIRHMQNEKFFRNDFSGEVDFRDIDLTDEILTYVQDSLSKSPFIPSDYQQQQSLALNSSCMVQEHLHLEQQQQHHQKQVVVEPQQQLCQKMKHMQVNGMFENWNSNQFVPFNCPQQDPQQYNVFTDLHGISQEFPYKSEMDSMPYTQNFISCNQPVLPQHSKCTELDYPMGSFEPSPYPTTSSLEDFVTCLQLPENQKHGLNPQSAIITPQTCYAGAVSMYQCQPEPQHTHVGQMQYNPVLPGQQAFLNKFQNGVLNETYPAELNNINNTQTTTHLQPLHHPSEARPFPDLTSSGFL

AhR [5] = assay: Cignal XRE luciferase reporter assay in C4-2 cells; assay type: cell-based, human; details: C4-2 cells transfected with XRE reporter, FIG. 2A
Description: XRE and ARE Binding: 4×10^4 Cells were plated in a 96 well plate. C4-2 cells were transfected with XRE and ARE reporter, as well as with positive and negative control reporter plasmids using attractene. After 16 hours of transfection, media was changed to standard assay media (DMEM+0.5% FBS+0.1 mM NEAA). Cells were grown for an additional 8 hours under normal cell conditions. After 24 hours of transfection, treat the cells and harvested cells 18 hours after treatment. A dual luciferase assay was performed after 42 hours of transfection, and promoter activity values are expressed as arbitrary florescence units (AFU). Experiments were performed in triplicate and the standard error is indicated.
The Cignal XRE and ARE luciferase reporter assays were utilized to determine the activity of AhR and AR signaling pathways in androgen independent (C4-2) prostate cancer cells in the presence and absence of inhibitors. C4-2 cells were transfected with an XRE reporter plasmid & ARE reporter plasmid, as well as with positive and negative control reporter plasmids using attractene. Following transfection, treatments were added to each appropriate plate. A dual luciferase assay was performed and promoter activity values are expressed as arbitrary florescence units (AFU).

KLK3 = details: C4-2 cells, 50 μM CH223191 or 30 μM PP2 alone or in combination, 72 h, normalized to L-19
Description: (§1) RNA Extraction and Quantitative qRT-PCR Analysis: Total RNA was isolated from cell monolayers grown in 100 mm tissue culture dishes using RNeasy Mini Kit (Qiagen). 2 μg of the total RNA was reverse-transcribed using the Superscript II kit (Invitrogen), according to the manufacturer's recommendations. The cDNA served as a template in a 25 μl reaction mixture and was processed using the following protocol: an initial denaturation at 95° C. for 3 min, followed by 39 amplification cycles (95° C. for 10 s and 55-65° C. for 30 s), 95° C. for 10 s, 65° C. for 5 s and 95° C. for 50 s. The 25 μl qPCR reaction mixture was mixed with GoTaq qPCR Master Mix (Promega). Melt curve analyses were performed after each run to ensure a single product. Relative gene expression was determined using the ΔΔCq calculation method.
(§2) Primers to amplify the 470-bp cDNA fragment encoding L19 were used as an internal control. L-19: Forward (5′-3′) [sequence] & Reverse (5′-3′) [sequence].
(§3) Each bar represents mean±SEM (n=3) and were analyzed by student t-test. (*) denotes statistically significant differences (*P<0.05) compared to control.

AhR [6] = target: T1, AhR; details: cited from earlier work
AR [7] = assay: qRT-PCR of AR mRNA expression in C4-2 cells; details: 50 μM CH223191 or 30 μM PP2 alone or in combination, 72 h, normalized to L-19
Description: as §1, §2, §3

AhR [8] = assay: qRT-PCR of AhR mRNA expression in C4-2 cells; details: 50 μM CH223191 or 30 μM PP2 alone or in combination, 72 h, normalized to L-19
Description: as §1, §2, §3

AR [9] = assay: Cignal ARE luciferase reporter assay in C4-2 cells; assay type: cell-based, human; details: C4-2 cells transfected with ARE reporter, FIG. 2B
Description: The Cignal XRE and ARE luciferase reporter assays were utilized to determine the activity of AhR and AR signaling pathways in androgen independent (C4-2) prostate cancer cells in the presence and absence of inhibitors. C4-2 cells were transfected with an XRE reporter plasmid & ARE reporter plasmid, as well as with positive and negative control reporter plasmids using attractene. Following transfection, treatments were added to each appropriate plate. A dual luciferase assay was performed and promoter activity values are expressed as arbitrary florescence units (AFU). Each bar represents mean±SEM (n=3) and were analyzed by student t-test. (*) denotes statistically significant differences (*P<0.0001).

CYP1B1 = assay: qRT-PCR of CYP1B1 mRNA expression in C4-2 cells; details: 50 μM CH223191 or 30 μM PP2 alone or in combination, 72 h, normalized to L-19
Description: as §1, §2, §3

estrogen receptor = target: T2, estrogen receptor (Homo sapiens, UniProt P03372); details: cited from earlier work
T2 sequence (P03372 1-595): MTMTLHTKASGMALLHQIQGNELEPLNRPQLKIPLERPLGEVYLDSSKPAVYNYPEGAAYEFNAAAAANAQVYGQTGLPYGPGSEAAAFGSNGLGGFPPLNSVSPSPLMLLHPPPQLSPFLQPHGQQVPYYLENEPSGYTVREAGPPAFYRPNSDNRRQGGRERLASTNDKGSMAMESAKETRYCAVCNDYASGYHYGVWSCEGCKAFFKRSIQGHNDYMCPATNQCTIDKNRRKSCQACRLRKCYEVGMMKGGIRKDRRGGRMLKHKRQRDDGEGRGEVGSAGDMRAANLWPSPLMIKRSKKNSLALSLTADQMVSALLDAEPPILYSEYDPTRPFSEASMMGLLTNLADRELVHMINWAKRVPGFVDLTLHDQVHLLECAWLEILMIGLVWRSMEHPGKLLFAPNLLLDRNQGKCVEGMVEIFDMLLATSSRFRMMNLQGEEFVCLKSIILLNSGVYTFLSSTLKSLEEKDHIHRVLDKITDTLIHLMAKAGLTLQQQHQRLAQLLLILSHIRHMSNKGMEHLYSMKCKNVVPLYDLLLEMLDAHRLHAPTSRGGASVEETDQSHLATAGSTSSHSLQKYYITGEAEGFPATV

Cc1ccccc1/N=N/c1ccc(NC(=O)c2ccnn2C)c(C)c1 [CH223191, 2-Methyl-2H-pyrazole-3-carboxylic acid (2-methyl-4-o-tolylazo-phenyl)-amide]
growth of C4-2 cells ([1]; 48 and 72 hours): significantly inhibited | decrease in overall growth rate compared to DMSO ([1]; after 72 hours of exposure): 25% | percent of cells in the G0/G1 phase of the cell cycle [2]: increase | presence of AR in the nucleus (AR nuclear localization) (AR [3]): reduced | stimulation of AhR-dependent transcription (agonist activity) (AhR [4]): did not stimulate | decrease in AhR promoter activity (XRE binding) compared to DMSO (AhR [5]): 30% | decrease in KLK3 mRNA expression (KLK3): 65% | TCDD-mediated nuclear translocation and DNA binding of AhR (AhR [6]): inhibited | reduction of AR gene expression (AR [7]): 60% | reduction of AhR gene expression compared to control (AhR [8]): more than twofold | reduction of AR promoter activity compared to DMSO in ARE binding assay (AR [9]): 70% | reduction of CYP1B1 gene expression compared to control (CYP1B1): more than twofold | affinity for the estrogen receptor (estrogen receptor): no affinity
